These are literature values, as cited in patent US20100055214A1, “METHOD FOR INCREASING BLOOD FLOW TO MAMMALIAN SKELETAL MUSCLE BY ADMINISTERING L-ARGNINE, CRATAEGUS EXTRACT, ARTICHOKE FLAVONOIDS AND GYMNOSTEMMA PENTAPHYLLUM EXTRACT” (H3 FORMULATIONS LTD., priority 2006, published 2010).

SMILES strings stand for the structures.

For this data set the following is noted: in vivo.

Consider `N=C(N)NCCC[C@H](N)C(=O)O` [L-arginine], for which the NO production entry is “increase” and the aerobic exercise capacity entry was “increase aerobic exercise capacity”.
